Assay results as given in patent publication US7462347B2, “Fluorescent membrane intercalating probes” (priority 2000, dated 2008).

Assays:
[1] = Absorbance/emission spectra in ethanol; assay type: physicochemical; design: key to Excitation Max / Emission Max: wavelength in nm; details: for Absorbance Max / Emission Max / Excitation Max: solutions in ethanol
Procedure: Referring now to Table 1 there are shown representations of the absorbance and emission properties of some example compounds of the present invention. Absorption and Fluorescence spectra were […] using 0.25 μM solutions in ethanol on a Jasco, Inc. UV-530 UV/VIS spectrophotometer and FP 750 spectrofluorometer, respectively. Approximate extinction coefficients were estimated from the absorbance scans by dividing the maximum absorbance by the nominal concentration ([…]).

[2] = tested on: YAC-1 murine lymphoma cells; assay: Probe effects on cell viability and cell growth (Maximum Tolerated Concentration); assay type: cell-based; details: for Growth Inhibition / Cytotoxicity: at MTC; for Growth Inhibition: 22-24 hours culture, versus diluent alone; for Cytotoxicity: trypan blue exclusion immediately post-staining (T = 0)
Procedure: YAC-1 murine lymphoma cells were stained at a concentrations of 10^7 cells/ml with increasing concentrations of probe by rapidly admixing 2× cells suspended in Diluent C with 2× probe in Diluent C. After 5 minutes at room temperature, the staining was stopped by the addition of cell culture medium. Cells were then washed thoroughly (RPI1640+10.0% FBS) and cultured under standard conditions for 22-24 hours. Cell numbers were compared to those in a control culture treated with diluent alone.
Maximum Tolerated Concentration (MTC) of probe was defined as the highest concentration of probe at which (1) viability by trypan blue exclusion immediately post-staining was>90% and (2) YAC cell growth after 24 hours was no more than 10% different than growth of cells in diluent alone.

[3] = Solubility of FR/NIR probes in ethanol, water and Diluent C; assay type: physicochemical
Procedure: Effects of the various combinations of asymmetrical and symmetrical alkyl chains and methene bridges on the solubility of the compounds of the present invention were examined. Compounds 8, 25, 13, 15 and 26 were all soluble in ethanol at concentrations≧1 mM. The more lipophilic probes 15 and 26, however, required sonication for a few minutes to achieve dissolution at 1 mM in ethanol. All example probes-were poorly soluble in water. Triplicate 1:50 dilutions of stock 1 mM probe solutions were made in either ethanol or test diluent. After 30 minutes at room temperature solutions were centrifuged at 10,000×g for 10 minutes to remove any microagregates and […] aliquots were transferred to 2.0 ml of ethanol for absorbance determinations. Based on the teachings of Leung et al. and on solubility specifications found on Sigma Certificates of Analysis for the commercial diluents (diluent supernatant absorbance at 30 minutes at least 60% of ethanol supernatant absorbance after 30 minutes), a preliminary specification at least 60% of the ethanol control was set as a surrogate for solubility sufficient to achieve cell labeling with S/N ratios greater than 100 and to minimize potential problems with brightness or reproducibility of labeling. None of the probes was as soluble after 30 minutes in Diluent C as PKH26 (86%±4% of ethanol control).

Row | Structure (SMILES) | maximum fluorescence ([1]; excitation light of about 635 nm) [nm] | Absorbance Max [1] | Emission Max [1] | Excitation Max [1] | Growth Inhibition [2] [%] | Cytotoxicity [2] [%] | solubility retained in Diluent C after 30 minutes ([3]; Diluent C, 30 minutes) | emission maximum wavelength ([1]; excitation light of about 647 nm) [nm] | MTC (Maximum Tolerated Concentration) ([2]; YAC-1 cells, 5 minutes staining in Diluent C) [µM] | solubility retained in Diluent C after 30 minutes ([3]; 30 min, 20 µM) | solubility ([3]; organic solvent or mixture) [µM] | solubility after 30 minutes in Diluent C ([3]; 1:50 dilution of 1 mM stock, 30 minutes at room temperature)
1 | CCCCCCCCCCCCCCCCCCCCCC[N+]1=C(/C=C/C=C/C=C2/N(CCCCCCCCCCCCCC)c3ccccc3C2(C)C)C(C)(C)c2ccccc21.[I-] [Compound 8] | 667 | 626 | 667 | 647 | <1 | <1 | approximately 65 % of solubility at T0 | – | – | – | – | –
2 | CCCCCCCCCCCCCCCCCCCCCC[N+]1=C(/C=C/C=C/C=C2/N(CCCCCCCCCCCCCC)c3ccc4ccccc4c3C2(C)C)C(C)(C)c2c1ccc1ccccc21.[I-] [Compound 13] | – | 684 | 713 | 680 | <1 | <1 | – | 713 | – | – | – | –
3 | CCCCCCCCCCCCCCCCCCCCCC[N+]1=C(/C=C/C=C/C=C/C=C2/N(CCCCCCCCCCCCCC)c3ccc4ccccc4c3C2(C)C)C(C)(C)c2c1ccc1ccccc21.[I-] [Compound 15] | – | 786 | 814 | 790 | <5 | <1 | approximately 65 % of solubility at T0 | – | – | – | – | –
4 | CCCCCCCCCCCCCCCCCCCCCC[N+]1=C(/C=C/C=C/C=C2/N(CCCCCCCCCCCCCC)c3ccc4ccccc4c3C2(C)C)C(C)(C)c2ccccc21 [Compound 25] | – | 666 | 682 | 667 | <4 | <1 | – | – | 10 | greater than 55 % of solubility at T0 | ≥ 1000 | –
5 | CCCCCCCCCCCCCCCCCCCCCC[N+]1=C(/C=C/C=C2/N(CCCCCCCCCCCCCC)c3ccccc3C2(C)C)C(C)(C)c2ccccc21.[I-] [PKH26, reference compound] | – | – | – | – | <1 | <1 | – | – | – | – | – | 86%±4%
